Each compound was assayed on PFI-019, SEQ ID NO: 2 (assay: FLIPR functional cell-based assay for agonist activation (Fluo3 fluorescence), transiently transfected 293 cells expressing mouse Gα15). Details: PFI-019-transfected 293 cells (HEK 293 expressing mouse Gα15); fluorescence intensity versus time; concentration not given; Figures 3-6.
Parameters: species or system human
Description: Fluorescence Imaging Plate Reader (FLIPR®) technology was employed as a means to detect activation of PFI-019 by agonists in a cell-based assay.
5 x 10^6 Human Embryonic Kidney (HEK) 293 cells expressing the mouse Gα15 gene (from here on called '293 cells'), were transiently transfected with 7.5 µg of PFI-019 (contained within the pcDNA4HIS-max-TOPO (Invitrogen) plasmid) vector, or vector alone, using Lipofectamine Plus® reagent (Gibco BRL) as per the manufacturer's protocol. The plasmid pcDNA4HIS-max-TOPO was used as it contains elements that up-regulate the level of gene transcription over standard pcDNA3.1 vectors. 24 hrs post-transfection, the cells were detached from the flask using Trypsin/EDTA solution (LTI) and seeded into a black sided, Poly-D-lysine-treated, 96-well plate (Becton Dickinson) at 5 x 10^4 cells/well density. The plates were left overnight to allow the cells to adhere to the bottom of the wells. The medium was removed from the cells and replaced with 100 µl warm (37°C) dye loading solution (50 µg Fluo3 (Molecular Probes) in 20 µl DMSO + 20% pluronic acid in DMSO, added to 11 ml Dulbecco's Modified Eagles Medium containing 1x Probenecid (100x Probenecid - 0.71 g Probenecid was dissolved in 5 ml 1M NaOH and 5 ml Dulbeccos' Phosphate Buffered Saline (PBS), per plate; Probenecid (Molecular Probes) inhibits activity of the anion transport protein, thus improving dye loading). The plates were then incubated for 1 hr at 37°C. Plates were subsequently washed with 250 µl of wash buffer per well (5 ml 100x Probenecid stock + 495 ml PBS, pH 7.4) 4 times. The plates were returned to the 37°C/5%CO2 incubator for 30 mins prior to processing within the FLIPR® instrument. The FLIPR® processing involved reading the fluorescence for all samples for 2 minutes; during this time the fluorescence baseline was determined for the first 10 seconds. The desired amount of compound was then automatically transferred to the wells, and the fluorescence was continuously monitored for the remainder of the time. All compounds were diluted in wash buffer
Using methodology as described in detail above, purinoceptor agonist compounds were identified as being able to functionally activate PFI-019.
Figures 3, 4, 5 and 6 show the response of PFI-019-transfected 293 cells to 2-chloroadenosine triphosphate tetrasodium (2-chloro-ATP; Fig. 3), 2-Methylthioadenosine triphosphate tetrasodium (2-methyl-thio-ATP; Fig. 4;); 2-Methylthioadenosine diphosphate trisodium (2-methyl-thio-ADP, Fig. 5) and Uridine triphosphate (Fig. 6). […] All compounds were purchased from Sigma.

| SMILES | stimulation of PFI-019 |
| --- | --- |
| Nc1nc(Cl)nc2c1ncn2[C@@H]1O[C@H](COP(=O)([O-])OP(=O)([O-])OP(=O)([O-])[O-])[C@@H](O)[C@H]1O.[Na+].[Na+].[Na+].[Na+] [2-chloro-ATP, 2-chloroadenosine triphosphate tetrasodium] | stimulation |
| CSc1nc(N)c2ncn([C@@H]3O[C@H](COP(=O)(O)OP(=O)(O)O)[C@@H](O)[C@H]3O)c2n1 [2-methyl-thio-ADP, 2-Methylthioadenosine diphosphate trisodium] | stimulation |
| CSc1nc(N)c2ncn([C@@H]3O[C@H](COP(=O)(O)OP(=O)(O)OP(=O)(O)O)[C@@H](O)[C@H]3O)c2n1 [2-methyl-thio-ATP, 2-Methylthioadenosine triphosphate tetrasodium] | stimulation |
| O=c1ccn([C@@H]2O[C@H](COP(=O)(O)OP(=O)(O)OP(=O)(O)O)[C@@H](O)[C@H]2O)c(=O)[nH]1 [UTP, Uridine triphosphate] | stimulation |

Source: patent publication EP1219638A2, “G-protein coupled receptors having homology to the P2Y purinoreceptor 1 (P2Y1)” (Pfizer Limited, priority 2000, dated 2002)
